Drawing on US12378243B2, “Quinoline compounds as inhibitors of KRAS” (Incyte Corporation, priority 2021, dated 2025), this text covers IC50 and Caco-2 for 13 molecules.

One data set deals with KRAS G12D (Homo sapiens, UniProt P01116, G12D). The experiment in a line: GDP-GTP exchange assay, KRAS G12D. In kind it is biochemical. The note with it: bodipy-loaded KRAS G12D 2.5 nM, GppNHp 500 uM, SOS1 150 nM; 4 hours pre-incubation, 2 hours incubation; read-out: G12D_exchange. As to the method: Inhibitors were serially diluted in DMSO and a volume of 0.1 μL was transferred to the wells of a black low volume 384-well plate. […] The exchange was initiated by the addition of a 5 μL/well volume containing 1 mM GppNHp and 300 nM SOS1 in assay buffer. […] The reaction plates were incubated at ambient temperature for 2 hours, a time estimated for complete GDP-GTP exchange in the absence of inhibitor.
Either GraphPad prism or Genedata Screener SmartFit was used to analyze the data. The IC50 values were derived by fitting the data to a four parameter logistic equation producing a sigmoidal dose-response curve with a variable Hill coefficient.
“NA” indicates IC50 not available.

For a further data set, the target named is KRAS G12V mutant (Homo sapiens, UniProt P01116, G12V). Nature of the data set: GDP-GTP exchange assay, KRAS G12V. In kind it is biochemical. The note with it: bodipy loaded KRAS G12V 2.5 nM; 3 hours incubation after adding GppNHp-SOS1 mixture; read-out: G12V_exchange.
The test system of another data set is Caco-2 cells. The experiment in a line: Caco2 assay (permeability, A-B). In kind it is in vitro ADME. The note with it: Papp absorptive direction (A-B), test compound 50 μM, 120 minutes at 37° C. As to the method: Caco-2 cells are grown at 37° C. in an atmosphere of 5% CO2 in DMEM growth medium supplemented with 10% (v/v) fetal bovine serum, 1% (v/v) nonessential amino acids, penicillin (100 U/mL), and streptomycin (100 μg/mL). Confluent cell monolayers are subcultured every 7 days or 4 days for Caco-2 by treatment with 0.05% trypsin containing […]. Caco-2 cells are seeded in 96-well Transwell plates. The seeding density for Caco-2 cells is 14,000 cells/well. DMEM growth medium is replaced every other day after seeding. Cell monolayers are used for transport assays between 22 and 25 days for Caco-2 cells.
Cell culture medium is removed and replaced with HBSS. To measure the TEER, the HBSS is added into the donor compartment (apical side) and receiver compartment (basolateral side). The TEER is measured by using a REMS Autosampler to ensure the integrity of the cell monolayers. Caco-2 cell monolayers with TEER values ≥300 Ω·cm^2 are used for transport experiments. To determine the Papp in the absorptive direction (A-B), solution of test compound (50 μM) in HBSS is added to the donor compartment (apical side), while HBSS solution with 4% BSA is added to the receiver compartment (basolateral side). The apical volume was 0.075 mL, and the basolateral volume is 0.25 mL. The incubation period is 120 minutes at 37° C. in an atmosphere of 5% CO2. At the end of the incubation period, samples from the donor and receiver sides are removed and an equal volume of acetonitrile is added for protein precipitation. The supernatants are collected after centrifugation (3000 rpm, Allegra X-14R Centrifuge from Beckman Coulter, Indianapolis, IN) for LCMS analysis. The permeability value is determined according to the equation:
[formula] • where the flux rate (F, mass/time) is calculated from the slope of cumulative amounts of compound of interest on the receiver side, SA is the surface area of the cell membrane, VD is the donor volume, and MD is the initial amount of the solution in the donor chamber.
The symbol “+” indicates a Caco-2 value of […], “++” indicates a Caco-2 value of >0.5 but ≤1; and “+++” indicates a Caco-2 value of >1. “NA” indicates IC50 not available.

KRAS G12D, sequence (P01116 1-188 isoform P01116-2 G12D): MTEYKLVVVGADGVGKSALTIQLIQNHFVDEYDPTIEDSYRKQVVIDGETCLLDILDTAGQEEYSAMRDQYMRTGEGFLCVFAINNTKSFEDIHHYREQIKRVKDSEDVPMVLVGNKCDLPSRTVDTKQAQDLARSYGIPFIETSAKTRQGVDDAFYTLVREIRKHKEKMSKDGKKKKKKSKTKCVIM
KRAS G12V mutant, sequence (P01116 1-188 isoform P01116-2 G12V): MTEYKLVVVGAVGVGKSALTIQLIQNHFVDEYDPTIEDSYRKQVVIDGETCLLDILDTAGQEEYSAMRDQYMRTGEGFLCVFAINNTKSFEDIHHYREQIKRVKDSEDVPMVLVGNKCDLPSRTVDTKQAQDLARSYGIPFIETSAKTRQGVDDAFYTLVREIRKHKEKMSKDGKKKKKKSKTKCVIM

As for `CNC(=O)c1ccc(-c2nc3c(F)c(-c4cccc(Cl)c4Cl)c(CCC#N)cc3c3c2cc([C@@H](C)n2ccncc2=O)n3[C@H]2[C@H]3CN[C@@H]2C3)cc1F` (single isomer, unassigned) [Example 54b], the IC50 at KRAS G12D and at KRAS G12V mutant was < 100 nM in each case. Moreover, in the data set with Caco-2 cells (Table 4), the Caco-2 entry is reported as “+++ (a Caco-2 value of >1)”.

In the case of `Cc1cc2c(-n3cncn3)nc3c(F)c(-c4cc(O)cc5ccc(Cl)cc45)c(CCC#N)cc3c2n1[C@H]1[C@H]2CN[C@@H]1C2` [Example 1, 3-(1-((1R,4R,5S)-2-Azabicyclo[2.1.1]hexan-5-yl)-7-(7-chloro-3-hydroxynaphthalen-1-yl)-6-fluoro-2-methyl-4-(1H-1,2,4-triazol-1-yl)-1H-pyrrolo[3,2-c]quinolin-8-yl)propanenitrile], the IC50 at KRAS G12D and at KRAS G12V mutant was < 100 nM in each case. For the same molecule, the Caco-2 result in the data set on Caco-2 cells (Table 3) was “++ (a Caco-2 value of >0.5 but ≤1)”.

On to `Cc1cc2c(O[C@@H](C)[C@@H]3CCCN3C)nc3c(F)c(-c4c[nH]c5c(F)cc(F)cc45)c(CCC#N)cc3c2n1[C@H]1[C@H]2CN[C@@H]1C2` [Example 2, 3-(1-((1R,4R,5S)-2-Azabicyclo[2.1.1]hexan-5-yl)-7-(5,7-difluoro-1H-indol-3-yl)-6-fluoro-2-methyl-4-((S)-1-((S)-1-methylpyrrolidin-2-yl)ethoxy)-1H-pyrrolo[3,2-c]quinolin-8-yl)propanenitrile], for which the IC50 at KRAS G12D and at KRAS G12V mutant was < 100 nM in each case. For the same molecule, in the data set with Caco-2 cells (Table 3), the Caco-2 result is recorded as “+ (a Caco-2 value of 50.5)”.

Take `Cc1cc2c(-c3c(CCC#N)cc4c(nc(O[C@@H](C)[C@@H]5CCCN5C)c5cc(C)n([C@H]6[C@H]7CN[C@@H]6C7)c54)c3F)c[nH]c2cc1F` [Example 3, 3-(1-((1R,4R,5S)-2-Azabicyclo[2.1.1]hexan-5-yl)-6-fluoro-7-(6-fluoro-5-methyl-1H-indol-3-yl)-2-methyl-4-((S)-1-((S)-1-methylpyrrolidin-2-yl)ethoxy)-1H-pyrrolo[3,2-c]quinolin-8-yl)propanenitrile]: the IC50 on KRAS G12D and at KRAS G12V mutant was < 100 nM each time. Besides, the Caco-2 result in the data set on Caco-2 cells (Table 3) is reported as “+ (a Caco-2 value of 50.5)”.

Take `C[C@H](Oc1nc2c(F)c(-c3cccc(Cl)c3Cl)c(CCC#N)cc2c2c1cc(CCC(=O)N1CCC1)n2[C@H]1[C@H]2CN[C@@H]1C2)[C@@H]1CCCN1C` [Example 4, 3-(2-(3-(Azetidin-1-yl)-3-oxopropyl)-1-((1R,4R,5S)-2-azabicyclo[2.1.1]hexan-5-yl)-7-(2,3-dichlorophenyl)-6-fluoro-4-((S)-1-((S)-1-methylpyrrolidin-2-yl)ethoxy)-1H-pyrrolo[3,2-c]quinolin-8-yl)propanenitrile]: the IC50 on KRAS G12D and on KRAS G12V mutant was < 100 nM in each case. Besides, the Caco-2 entry in the data set on Caco-2 cells (Table 3) was “+ (a Caco-2 value of 50.5)”.

As for `Cc1cc2c(nc(O[C@@H](C)[C@@H]3CCCN3C)c3cc(CN4CCOC4=O)n([C@H]4[C@H]5CN[C@@H]4C5)c32)c(F)c1-c1cc(O)cc2ccccc12` [Example 5, 3-((1-((1R,4R,5S)-2-Azabicyclo[2.1.1]hexan-5-yl)-6-fluoro-7-(3-hydroxynaphthalen-1-yl)-8-methyl-4-((S)-1-((S)-1-methylpyrrolidin-2-yl)ethoxy)-1H-pyrrolo[3,2-c]quinolin-2-yl)methyl)oxazolidin-2-one], the IC50 at KRAS G12D and at KRAS G12V mutant was < 100 nM throughout. The Caco-2 result in the data set on Caco-2 cells (Table 3) is “+ (a Caco-2 value of 50.5)”.

For `Cc1cc2c(nc(O[C@@H](C)[C@@H]3CCCN3C)c3cc(C)n([C@H]4[C@H]5CN[C@@H]4C5)c32)c(F)c1-c1cccc2cccc(C#N)c12` [Example 6, 8-(1-((1R,4R,5S)-2-Azabicyclo[2.1.1]hexan-5-yl)-6-fluoro-2,8-dimethyl-4-((S)-1-((S)-1-methylpyrrolidin-2-yl)ethoxy)-1H-pyrrolo[3,2-c]quinolin-7-yl)-1-naphthonitrile], the IC50 at KRAS G12D and on KRAS G12V mutant was < 100 nM in each case. Moreover, the Caco-2 entry with Caco-2 cells (Table 3) was “++ (a Caco-2 value of >0.5 but ≤1)”.

For `Cc1nc2c(F)c(-c3cccc4ccc(F)cc34)c(CCC#N)cc2c2c1cc(CN1CCN(C)CC1=O)n2[C@H]1[C@H]2CN[C@@H]1C2` [Example 15, 3-(1-((1R,4R,5S)-2-Azabicyclo[2.1.1]hexan-5-yl)-6-fluoro-7-(7-fluoronaphthalen-1-yl)-4-methyl-2-((4-methyl-2-oxopiperazin-1-yl)methyl)-1H-pyrrolo[3,2-c]quinolin-8-yl)propanenitrile], the values for the IC50 on KRAS G12D and on KRAS G12V mutant were < 100 nM and 100 to 1000 nM, respectively. In addition, in the data set with Caco-2 cells (Table 3), the Caco-2 entry was “++ (a Caco-2 value of >0.5 but ≤1)”.

In the case of `CCOc1nc2c(F)c(-c3cc(O)cc(Cl)c3Cl)c(CCC#N)cc2c2c1cc(CN1CCN(C(C)C)CC1=O)n2[C@H]1[C@H]2CN[C@@H]1C2` [Example 16, 3-(1-((1R,4R,5S)-2-azabicyclo[2.1.1]hexan-5-yl)-7-(2,3-dichloro-5-hydroxyphenyl)-4-ethoxy-6-fluoro-2-((4-isopropyl-2-oxopiperazin-1-yl)methyl)-1H-pyrrolo[3,2-c]quinolin-8-yl)propanenitrile], the IC50 at KRAS G12D and on KRAS G12V mutant was < 100 nM throughout. Moreover, the Caco-2 entry with Caco-2 cells (Table 3) was “+ (a Caco-2 value of 50.5)”.

With `CN(C)C1(C)CN(c2nc3c(F)c(-c4cccc5ccc(F)cc45)c(CCC#N)cc3c3c2cc(CN2CCOCC2=O)n3[C@H]2[C@H]3CN[C@@H]2C3)C1` [Example 17, 3-(1-((1R,4R,5S)-2-Azabicyclo[2.1.1]hexan-5-yl)-4-(3-(dimethylamino)-3-methylazetidin-1-yl)-6-fluoro-7-(7-fluoronaphthalen-1-yl)-2-((3-oxomorpholino)methyl)-1H-pyrrolo[3,2-c]quinolin-8-yl)propanenitrile], the IC50 on KRAS G12D and at KRAS G12V mutant was < 100 nM each time. Besides, the Caco-2 entry in the data set with Caco-2 cells (Table 3) is listed as “+ (a Caco-2 value of 50.5)”.

For `CCOc1nc2c(F)c(-c3cc(O)cc4ccccc34)c(CCC#N)cc2c2c1cc(C(C)N1CCOCC1=O)n2[C@H]1[C@H]2CN[C@@H]1C2` (stereo partly drawn) [Example 18, 3-(1-((1R,4R,5S)-2-azabicyclo[2.1.1]hexan-5-yl)-4-ethoxy-6-fluoro-7-(3-hydroxynaphthalen-1-yl)-2-(1-(3-oxomorpholino)ethyl)-1H-pyrrolo[3,2-c]quinolin-8-yl)propanenitrile], the IC50 at KRAS G12D and on KRAS G12V mutant was < 100 nM throughout. The Caco-2 entry in the data set with Caco-2 cells (Table 3) is reported as “+ (a Caco-2 value of 50.5)”.

As for `C[C@H](Oc1nc2c(F)c(-c3cc(O)cc4ccccc34)c(CCC#N)cc2c2c1cc(-c1cccnc1)n2C1C2CNC1C2)[C@@H]1CCCN1C` (stereo partly drawn) [Example 19, 3-(1-((endo)-2-Azabicyclo[2.1.1]hexan-5-yl)-6-fluoro-7-(3-hydroxynaphthalen-1-yl)-4-((S)-1-((S)-1-methylpyrrolidin-2-yl)ethoxy)-2-(pyridin-3-yl)-1H-pyrrolo[3,2-c]quinolin-8-yl)propanenitrile], the IC50 on KRAS G12D and on KRAS G12V mutant was < 100 nM each time. Also, the Caco-2 entry in the data set with Caco-2 cells (Table 3) is “+ (a Caco-2 value of 50.5)”.

On to `CC(=O)N1CC[C@H](n2ncc3c(O[C@@H](C)[C@@H]4CCCN4C)nc4c(F)c(-c5cccc6cccc(C#N)c56)c(Cl)cc4c32)C[C@H]1CC#N` [Example 25, 8-(1-((2S,4S)-1-acetyl-2-(cyanomethyl)piperidin-4-yl)-8-chloro-6-fluoro-4-((S)-1-((S)-1-methylpyrrolidin-2-yl)ethoxy)-1H-pyrazolo[4,3-c]quinolin-7-yl)-1-naphthonitrile], for which the IC50 at KRAS G12D and at KRAS G12V mutant was < 100 nM in each case. Moreover, the Caco-2 entry in the data set with Caco-2 cells (Table 3) was “+++ (a Caco-2 value of >1)”.
